Assay results from patent US20260124213A1, “STAPHYLOCOCCUS AUREUS PBP4 INHIBITORS AND METHOD OF USE” (UNIVERSITY OF ROCHESTER, priority 2022, published 2026).

Columns and labels:
MRSA strain AH-2204 = assay: Broth microdilution antibiotic potentiation; format: cell-based, Staphylococcus aureus; conditions: AH-2204
Protocol: (§1) Broth Microdilution Method for Antibiotic Potentiation with MRSA Strains. Bacteria were cultured for 6 hours in CAMHB and sub-cultured to 5×10^5 CFU/mL in CAMHB. Subcultures were aliquoted (4 mL) into culture tubes and then inoculated with compound from 10 mM or 100 mM stock in DMSO to the desired concentration. […]. Bacteria treated with antibiotic alone served as the control. Samples from the secondary culture tubes were then aliquoted (200 μL) into the first row of wells of a 96-well microtiter plate. Rows 2-11 were filled (100 μL) with the remaining 4 mL of bacterial subculture containing the adjuvant. Row 12 was filled (100 μL) with uninoculated media. From row 1, 100 μL was transferred to row two and mixed 5-8 times before being transferred to row 3. This procedure was used to serial dilute the rest of the rows through 10. The microtiter plate was then covered in Press 'n Seal and incubated at 37° C.

MRSA strain AH-1263 = assay: Broth microdilution antibiotic potentiation; format: cell-based, Staphylococcus aureus; conditions: AH-1263; for Ampicillin MIC / Ampicillin MIC fold reduction / Cefotaxime MIC / Oxacillin MIC: Ex. 3 compound at 60 μM (18 and 19 at 30 μM)
Protocol: as §1

[1] = tested on: MRSA strain ATCC BAA-1556; assay: Broth microdilution antibiotic potentiation; format: cell-based, Staphylococcus aureus; conditions: ATCC BAA-1556
Protocol: as §1

recombinant PBP4 = assay: BOCILLIN FL labeling of PBP4, gel electrophoresis and fluorescence detection; format: binding; conditions: kanamycin 2000 μM or 5000 μM
Protocol: PBP4 BOCILLIN™ FL Binding Competition Assays. The ability of putative PBP4 inhibitors to impact the active site of recombinant PBP4 was assessed using two previously established BOCILLIN™-FL Penicillin (Penicillin V conjugated to BODIPY fluorescent dye) binding assays. First, fluorescence polarization assays were performed as previously described. Briefly, the indicated amount of the putative PBP4 inhibitor or control antibiotic was incubated with 1 μM recombinant B. subtilis PBP4 or S. aureus PBP2a in potassium phosphate buffer (40 mM K2HPO4 and 10 mM KH2PO4) for 1 hour in black 96-well microtiter plates (Corning Life Sciences®, Corning, NY). […] BOCILLIN™ FL fluorescence polarization was measured at (495nm excitation and 545nm emission) in a SpectraMax® M5 multimode plate reader (Molecular Devices®, San Jose, CA). […] Second, gel electrophoresis and fluorescence detection were used to measure BOCILLIN™ FL labeling of PBP4 treated with the known PBP4 inhibitor cefoxitin (positive control), kanamycin (negative control) or 9314848 (test compound). […] BOCILLIN™ FL labeled PBP4 was imaged at λ=365 nm using a BioRad© Gel Doc EZ™ Imaging system and the gel was then subsequently stained with Bio-safe Coomassie Brilliant Blue stain (BioRad©, Hercules, CA, USA) to measure the amount of protein present in each reaction condition and analyzed using NIH-ImageJ software. […]

HEPG2 cells = assay: MTT cell viability / mammalian cytotoxicity; format: cell-based, human; conditions: compound at 100 μM; HEPG2 cells approximately 2.5 × 10^5 cells/mL
Protocol: Eukaryotic Toxicity Testing. Two rounds of eukaryotic toxicity testing were performed. Initially hits of interest were evaluated for antifungal activity in high throughput manner. To do so, 10^5 CFU of Saccharomyces cerevisiae YSB1001 cells (10 μL) were inoculated into individual wells of a microtiter plate containing yeast peptone dextrose media (88 μL) and 50 μM of each hit (2 μL). […] More extensive mammalian cytotoxicity testing was performed on the indicated highest priority hits of interest following International Organization for Standardization guidelines. Briefly, human liver epithelial cells (HEPG2) were cultured in Dulbecco's modified Eagle medium (DMEM; Fisher Scientific®) supplemented with 10% heat inactivated fetal bovine serum (FBS; Corning Life Sciences, Corning, NY) and 1% penicillin and streptomycin. Cells were incubated at 37° C. with 5% CO2 in Nunc™ tissue culture flasks (Roskilde, Denmark) until reaching 70% confluency. Cells were removed with 0.25% trypsin (Fisher Scientific®), resuspended in fresh medium, and used to seed approximately 2.5×10^5 mL^−1 cells into individual wells of a 96 well tissue culture microplate (Nunc™) containing 200 μL of fresh medium, and incubated for 24 hours. […] Mixtures were incubated for 20-24 h at 37° C. with 5% CO2, the media was removed and replaced with 100 μL fresh media and 10 μL of 12 mM (3-(4,5-dimethylthiazol-2-yl)-2,5-diphenyltetrazolium bromide (MTT) reagent (Cyquant™ Cell Viability kit; Invitrogen™, Carlsbad, CA) was added to each well. Cells were incubated at 37° C. with 5% CO2 for 2-4 hour, 85 μL of media was removed and the remainder was mixed with 50 μL DMSO and incubated for an additional 10 minutes at 37° C. in the dark. Using a SpectraMax® M5 microplate reader, cell viability was recorded as absorbance at OD540 nm. All compounds were tested in triplicate and cell viability was expressed as a percent viability of treated cells in comparison to mock treated cells. […]

[2] = molecular target: recombinant B. subtilis PBP4 (Bacillus subtilis, UniProt P40750); assay: BOCILLIN FL fluorescence polarization binding competition; conditions: compound 50 μM; Ex. 3 series
Protocol: PBP4 BOCILLIN™ FL Binding Competition Assays. The ability of putative PBP4 inhibitors to impact the active site of recombinant PBP4 was assessed using two previously established BOCILLIN™-FL Penicillin (Penicillin V conjugated to BODIPY fluorescent dye) binding assays. First, fluorescence polarization assays were performed as previously described. Briefly, the indicated amount of the putative PBP4 inhibitor or control antibiotic was incubated with 1 μM recombinant B. subtilis PBP4 or S. aureus PBP2a in potassium phosphate buffer (40 mM K2HPO4 and 10 mM KH2PO4) for 1 hour in black 96-well microtiter plates (Corning Life Sciences®, Corning, NY). Following incubation, 1 μM (final concentration) BOCILLIN™ FL penicillin was added, and the mixture was incubated for 30 minutes. BOCILLIN™ FL fluorescence polarization was measured at (495nm excitation and 545nm emission) in a SpectraMax® M5 multimode plate reader (Molecular Devices®, San Jose, CA). All assays were repeated at least 8 times, averaged, and values falling outside of 2 standard deviations were considered outliers. Resulting data was plotted as percentage BOCILLIN™ FL binding inhibition=(T/U)×100; T=FL polarization of ((PBP4+BOCILLIN™ FL)−(PBP4+BOCILLIN™ FL+inhibitor compound)), U=FL polarization of ((PBP4+BOCILLIN™ FL)−(BOCILLIN™ FL)). Second, gel electrophoresis and fluorescence detection were used to measure BOCILLIN™ FL labeling of PBP4 treated with the known PBP4 inhibitor cefoxitin (positive control), kanamycin (negative control) or 9314848 (test compound). Briefly, 1 μM of recombinant PBP4 was mixed with 0, 50, 500, 2000, or 5000 μM 9314848 or control antibiotic in 50 mM phosphate buffer (pH 7.4) and incubated at 37° C. for 30 minutes. Next 40 μM of BOCILLIN™ FL was added to the reaction mixture and incubated for an additional 30 minutes at 37° C. Reactions were stopped by adding 5×SDS-PAGE gel loading dye, heated at 100° C. for 3 minutes and separated by electrophoresis in 12% SDS-PAGE (2 h, 120 Volts). BOCILLIN™ FL labeled PBP4 was imaged at λ=365 nm using a BioRad© Gel Doc EZ™ Imaging system and the gel was then subsequently stained with Bio-safe Coomassie Brilliant Blue stain (BioRad©, Hercules, CA, USA) to measure the amount of protein present in each reaction condition and analyzed using NIH-ImageJ software. The percent BOCILLIN™ FL binding was calculated by first normalizing the protein present in each reaction condition to that of untreated control and subsequently applying each reaction's protein normalization factor to each reaction's fluorescent signal. The percentage BOCILLIN™ FL binding inhibition was then calculated as the normalized band intensity of antibiotic/compound treated sample as compared to control sample (PBP4+BOCILLIN™ FL in the absence of compound).
To more directly evaluate whether 9314848 is likely to affect PBP4 function, the compound's ability to bind recombinant PBP4 was measured using BOCILLIN™ FL fluorescence polarization displacement assays. The premise for the assay is that the fluorescence polarization of the fluorescently labeled β-lactam, penicillin V (BOCILLIN™ FL), will increase upon binding to its cognate target (i.e., PBP4). Further, compounds that bind PBP4 and inhibit its function would impede BOCILLIN™ FL binding thereby allowing assessment of the protein binding affinity of 9314848 using a simple fluorescence reduction assay.

[3] = Staphylococcus aureus, MRSA, read-out: Cefoxitin MIC, no compound (—)
[4] = Ex. 3 compound at 60 μM (18 and 19 at 30 μM)

Chain of recombinant B. subtilis PBP4 (P40750 22-624): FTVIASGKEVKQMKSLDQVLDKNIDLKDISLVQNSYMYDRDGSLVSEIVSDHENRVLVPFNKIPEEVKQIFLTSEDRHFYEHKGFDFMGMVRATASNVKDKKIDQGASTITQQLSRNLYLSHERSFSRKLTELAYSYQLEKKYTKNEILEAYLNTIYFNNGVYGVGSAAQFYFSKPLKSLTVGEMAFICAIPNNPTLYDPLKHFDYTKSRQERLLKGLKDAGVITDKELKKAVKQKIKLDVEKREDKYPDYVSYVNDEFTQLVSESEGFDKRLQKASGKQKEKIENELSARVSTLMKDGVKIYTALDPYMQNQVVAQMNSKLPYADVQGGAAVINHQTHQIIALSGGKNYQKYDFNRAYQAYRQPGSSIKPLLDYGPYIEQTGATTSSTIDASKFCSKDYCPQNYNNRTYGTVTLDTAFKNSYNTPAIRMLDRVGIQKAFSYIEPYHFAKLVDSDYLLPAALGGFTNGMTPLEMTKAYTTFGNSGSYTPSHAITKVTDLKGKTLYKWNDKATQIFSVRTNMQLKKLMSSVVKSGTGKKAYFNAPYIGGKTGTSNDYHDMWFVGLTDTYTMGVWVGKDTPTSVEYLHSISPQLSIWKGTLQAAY

| MIC (MRSA strain AH-2204; [3]) [µg/mL] | MIC (MRSA strain AH-1263; [3]) [µg/mL] | MIC ([1]; Staphylococcus aureus, read-out: Cefoxitin MIC, no compound (—)) [µg/mL] | Compound | Effect of preincubation on BOCILLIN FL labeling of PBP4 (gel) (recombinant PBP4) | Toxicity with HEPG2 Cells (cell viability) (HEPG2 cells) [%] | Percentage Bocillin Displacement (%), PBP4 binding [2] [%] | Ampicillin MIC (MRSA strain AH-2204; [4]) [µg/mL] | Cefotaxime MIC (MRSA strain AH-2204; [4]) [µg/mL] | Oxacillin MIC (MRSA strain AH-2204; [4]) [µg/mL] | Oxacillin MIC fold reduction (MRSA strain AH-2204; [4]) | Ampicillin MIC (MRSA strain AH-1263) [µg/mL] | Ampicillin MIC fold reduction (MRSA strain AH-1263) | Cefotaxime MIC (MRSA strain AH-1263) [µg/mL] | Oxacillin MIC (MRSA strain AH-1263) [µg/mL] | Ampicillin MIC [1, 4] [µg/mL] | Cefotaxime MIC [1, 4] [µg/mL] | Cefotaxime MIC fold reduction [1, 4] | Oxacillin MIC [1, 4] [µg/mL] | Oxacillin MIC fold reduction [1, 4] | Cefotaxime MIC fold reduction (MRSA strain AH-2204; [4]) |
| --- | --- | --- | --- | --- | --- | --- | --- | --- | --- | --- | --- | --- | --- | --- | --- | --- | --- | --- | --- | --- |
| 2 | 4 | 8 | CO[C@@]1(NC(=O)Cc2cccs2)C(=O)N2C(C(=O)O)=C(COC(N)=O)CS[C@@H]21 [Cefoxitin, cefoxitin] | reduced the protein's ability to bind the fluorescent substrate in a dose-dependent manner |  |  |  |  |  |  |  |  |  |  |  |  |  |  |  |  |
|  |  |  | O=C(Nc1ccc2[nH]c(-c3cc(Cl)cc(Cl)c3)nc2c1)c1ccco1 [Compound 33, N-(2-(3,5-Dichlorophenyl)-1H-benzo[d]imidazol-5-yl)furan-2-carboxamide] |  | 151 ± 11.3 | 56.5 ± 35.6 | 2 | 16 | 4 | (8) | 1 | (16) | 32 | 16 | 16 | 16 | (2) | 16 | (2) |  |
|  |  |  | O=C(Nc1ccc2[nH]c(C3CCCCC3)nc2c1)c1ccco1 [Compound 34, N-(2-Cyclohexyl-1H-benzo[d]imidazol-5-yl)furan-2-carboxamide] |  | 97 ± 5.8 | 60.3 ± 43.8 | 2 | 8 | 8 | (4) | 2 | (8) | 32 | 16 | 16 | 32 |  | 32 |  | (2) |
